Assays:
[1] = 400 mg per day ATP for 15 days; cited from earlier work
[2] = 225 mg per day enteric-coated ATP for 15 days; cited from earlier work
[3] = Dynavision D2 Mode B (reactive) visuomotor reaction time task with cognitive stressor before and after a 3-minute all-out cycling test (3 MT); type: in vivo, human
Description: (§1) This study followed a double-blind, randomized cross-over design. Participants were randomized to either PeakATP or Placebo and consumed their assigned supplement for a period of 14-days. Following supplementation, participants reported back to the lab within 24-hours for the first of two experimental trials, which occurred in a randomized, counterbalanced cross-over fashion. During experimental trial 1 (T1), participants ingested an acute dose of their assigned supplement 30 minutes before completing pre-testing assessments (Dynavision D2) followed by a 3-minute all-out high-intensity effort (3 MT) on a cycle ergometer. […]
(§2) A convenience sample of healthy, recreationally active individuals were recruited. […] To be included in this study, participants were required to be healthy and ready for activity as determined by physical activity readiness questionnaire (Par-Q+) and Medical History questionnaire (MHQ), be classified as recreationally active (≥150 minutes exercise per week) and not be taking and be willing to abstain from creatine or beta-alanine supplementation or be willing to complete a 4-week wash-out period prior to enrolling if taking creatine or beta-alanine and be willing to abstain from supplementing with either for the duration of the study. […]
(§3) Reaction time was assessed using the Dynavision D2 visuomotor training device. […]

[4] = Dynavision D2 Mode A (proactive) visuomotor reaction time task before and after a 3-minute all-out cycling test (3 MT); type: in vivo, human; settings: at 60 P; p=0.028
Description: as §1, §2, §3

Compound: Nc1ncnc2c1ncn2[C@@H]1O[C@H](COP(=O)(O)OP(=O)(O)OP(=O)(O)O)[C@@H](O)[C@H]1O [ATP, adenosine-5′-triphosphate]
- minimum peak torque in set two of a knee extensor bout [1]: increased
- total bench press lifting volume and within-group set-one repetitions to failure [2]: increased
- Mode B avgRT compared to PRE ([3]; at IP (p=0.015) and 60 P (p=0.001)): significantly faster
- Mode B avgRT compared to placebo ([3]; at any time point, p's>0.05): not significantly different
- Mode A number of hits compared to placebo [4]: significantly greater

Reference: patent publication US20240299435A1, “COMPOSITIONS CONTAINING ADENOSINE TRIPHOSPHATE (ATP) AND METHODS OF USE FOR COGNITIVE FUNCTION” (priority 2021, published 2024)
